Laboratory results as given in patent publication US20230181601A1, “TREATMENT OF NON-ALCOHOLIC STEATOHEPATITIS (NASH)” (DURECT CORPORATION, priority 2020, published 2023).

Key:
[1] = tested on: patients with Non-Alcoholic Steatohepatitis (NASH); experiment: Phase 1b study in NASH patients: safety; format: in vivo, human; conditions: all three doses (50 mg, 150 mg, 600 mg daily), 4 weeks oral
Description: A total of 63 patients completed the study with 21 patients per dose group (completion of MRI-PDFF measurement). […] Subjects provided written informed consent to participate in the study • 2. Males or females subjects 18 years or older, at the time of signing informed consent • 3. BMI 20-45 kg/m^2 • 4. […] Value of Fibroscan® ≥7 kPa • OR • b. MRE≥2.75 kPa • *Clinical diagnosis of NASH was defined in this clinical trial as the existence of one or more of the following risk factors for NASH, namely: • a. Type 2 diabetes or elevated fasting blood sugar • b. Abdominal obesity • c. Elevated lipid levels, especially elevated levels of serum triglycerides • d. Hypertension, or • e. Low levels of HDL cholesterol • 5. For serum transaminases, ALT concentration for all patients at the time of screening was >1 and <5 times upper limit of normal (ULN) of the central lab in the absence of another cause of liver disease. If a patient had lab records in the past 6 months, ALT concentrations were <20 U/L female and <30 U/L male. AST concentration for all patients at the time of screening was <5x ULN • 6. […] Platelet counts ≥120,000/mm^3 • 8. […]

[2] = Single oral dose safety and pharmacokinetic study in NASH and healthy subjects; format: in vivo, human; conditions: for Cmax: read-out: Cmax
Method: The present Example was a randomized, dose ranging, single dose safety and pharmacokinetic study of 25HC3S administered to subjects with NASH and control healthy subjects. […] For each cohort, 10 subjects with NASH were enrolled which were further classified into cirrhotic and non-cirrhotic. Each subject received only one dose of study treatment. The second cohort was dosed after a review of safety and tolerability data from Cohort 1.

[3] = Phase 1b study in NASH patients: pharmacokinetics; format: in vivo, human; conditions: for CL/F / AUC(0-t) / Cmax / Tmax / half-life: NASH patients, mean (standard deviation); for AUC(0-t) / Cmax / Tmax / half-life: both sexes, human, plasma
Description: A total of 63 patients completed the study with 21 patients per dose group (completion of MRI-PDFF measurement). […] Subjects provided written informed consent to participate in the study • 2. Males or females subjects 18 years or older, at the time of signing informed consent • 3. BMI 20-45 kg/m^2 • 4. […] Value of Fibroscan® ≥7 kPa • OR • b. MRE≥2.75 kPa • *Clinical diagnosis of NASH was defined in this clinical trial as the existence of one or more of the following risk factors for NASH, namely: • a. Type 2 diabetes or elevated fasting blood sugar • b. Abdominal obesity • c. Elevated lipid levels, especially elevated levels of serum triglycerides • d. Hypertension, or • e. Low levels of HDL cholesterol • 5. For serum transaminases, ALT concentration for all patients at the time of screening was >1 and <5 times upper limit of normal (ULN) of the central lab in the absence of another cause of liver disease. If a patient had lab records in the past 6 months, ALT concentrations were <20 U/L female and <30 U/L male. AST concentration for all patients at the time of screening was <5x ULN • 6. […] Platelet counts ≥120,000/mm^3 • 8. Female subjects were eligible for the study if they met the following criteria: • Are not pregnant or nursing • Women of child-bearing potential (defined as females who are not surgically sterile or who are not over the age of 52 and amenorrheic for at least 12 months) must utilize appropriate birth control throughout the study duration. Acceptable methods that may be used are abstinence, birth control pills (“The Pill”) or patch, diaphragm, IUD (coil), vaginal ring, condom, surgical sterilization or progestin implant or injection, or sexual activity limited to a sterile (e.g., vasectomized) male partner • 9. Male participants agreed to consistently and correctly use a condom in combination with one of the above methods of birth control from enrolment to 30 days after the last dose of study medication • 10. Participants were able to comply with dosing and able to complete the study schedule of assessments
The pharmacokinetics of administered 25HC3S was determined.

[4] = Metabolite profiling of plasma, urine and feces after intravenous dose; format: in vivo, male Sprague Dawley rats; conditions: intravenous 10 mg/kg
Method: Nine male Sprague Dawley rats (Group 1) were designated for the pharmacokinetic phase, 3 male Sprague Dawley rats (Group 2) for the excretion mass balance phase, and 7 male Sprague Dawley rats (Group 3) and 9 male Long Evans rats (Group 4) for the tissue distribution phase. All animals received a single intravenous dose of [^14C]-25HC3S at 10 mg/kg and a target radioactivity of 225 μCi/kg. Blood samples were collected from all Group 1 animals at approximately 0.083, 0.25, 0.5, 1, 2, 4, 8, 12, 24, 48, and 72 hours post-dose. Urine and feces were collected from all Group 2 animals periodically through 168 hours post-dose. […] Following blood collection, animals were euthanized by CO2 inhalation and carcasses frozen in a dry ice/hexane bath for processing by quantitative whole body autoradiography. Whole blood, plasma, urine, feces, cage rinse, and cage wash were analyzed for total radioactivity by liquid scintillation counting.

[5] = tested on: NASH patients; conditions: 50 mg vs 200 mg oral; cited from earlier work

With `C[C@H](CCCC(C)(C)O)[C@H]1CC[C@H]2[C@@H]3CC=C4C[C@@H](OS(=O)(=O)O)CC[C@]4(C)[C@H]3CC[C@]12C` [25HC3S, 5-cholesten-3,25-diol, 3-sulfate] the “tolerability, drug related serious adverse events” value [1] was “well tolerated at all three doses with no drug related serious adverse events observed”, the “difference in pharmacokinetics between healthy subjects and NASH patients” value ([2]; 50 mg and 200 mg single oral dose) was “no clear difference in pharmacokinetics” and the CL/F ([2]; 200 mg single oral dose, Healthy, Mean) was 171.25 ± 28.60 L/h. The “time post-dose up to which plasma levels were detectable” value ([2]; Cohort 1 (50 mg) healthy subjects) was “up to 12 hours”, the “AUC0-inf, higher in NASH than healthy subjects” value ([2]; Cohort 2 (200 mg)) was “approximately 20%” and the “geometric mean AUC0-12 and AUC0-last, higher in NASH than healthy subjects” value ([2]; Cohort 2 (200 mg)) was “approximately 30%”. The “time post-dose up to which plasma levels were detectable” value ([2]; Cohort 2 (200 mg) healthy subjects) was “up to 16 hours”, the “increase of geometric mean Cmax in NASH over healthy subjects” value ([2]; Cohorts 1 and 2) was 18-24% and the “exposure (AUC parameters), potential increasing trends in NASH subjects” value ([2]; NASH vs healthy) was “up to 31%”. The half-life ([2]; human, plasma, oral, across both healthy and NASH subject groups, 50 mg and 200 mg, read-out: T1/2, range of mean values) was 100 to 151 min, the Cmax ([2]; human, plasma, 50 mg single oral dose, Healthy, Mean) was 94 ± 27.3 ng/mL and the Cmax ([2]; human, plasma, 200 mg single oral dose, Healthy, Mean) was 260 ± 54.8 ng/mL. For the same compound, the CL/F ([3]; 50 mg QD oral) was 150.6 (51.5) L/h, the CL/F ([3]; 150 mg QD oral) was 176.6 (80.5) L/h and the CL/F ([3]; 300 mg BID oral) was 166.2 (60.4) L/h. It also gave an AUC(0-t) ([3]; 50 mg QD oral) of 340 ng·h/mL, a Cmax ([3]; 50 mg QD oral) of 79.1 ng/mL and a Tmax ([3]; 50 mg QD oral) of 2.4 h. For the same compound, the half-life ([3]; 50 mg QD oral) was 162 min, the AUC(0-t) ([3]; 150 mg QD oral) was 1040 ng·h/mL and the Cmax ([3]; 150 mg QD oral) was 274 ng/mL. For the same compound, the Tmax ([3]; 150 mg QD oral) was 2 h, the half-life ([3]; 150 mg QD oral) was 162 min and the AUC(0-t) ([3]; 300 mg BID oral) was 2140 ng·h/mL. It also gave a Cmax ([3]; 300 mg BID oral) of 430 ng/mL, a Tmax ([3]; 300 mg BID oral) of 2.3 h and a half-life ([3]; 300 mg BID oral) of 144 min. For the same compound, the “PK parameters after repeat dosing” value ([3]; repeat vs single dose) was “comparable to those after a single dose and were dose dependent”, the “% of dose in feces” value ([4]; pools 0 to 48 hours postdose) was 2 % of dose and the “share of the exposure (AUC) to 25HC3S related radioactivity in plasma” value ([4]; up to 1 hour postdose) was “approximately 54%”. For the same compound, the “dose dependence of biological responses” value [5] was “no dose-dependent changes of biological responses”.
